Measured values reported in US20130316042A1, “ENHANCED RELEASE OF LIPOPHILIC INGREDIENTS FROM CHEWING GUM WITH HYDROCOLLOIDS” (CADBURY ADAMS MEXICO, S. DE R.L. DE C.V., priority 2010, published 2013).

Assay: logP (octanol/water) at 25° C.
Type: physicochemical
Experimental: In one aspect, the lipophilic ingredient is one having a partition coefficient between octanol and water (log P (octanol/water) at 25° C.) of greater than or equal to 1.5, specifically greater than or equal to 2.0, more specifically greater than or equal to 2.5, yet more specifically greater than or equal to 3.0, still yet more specifically greater than or equal to 3.5, and more specifically greater than or equal to 4.0. The partition coefficient of material can be determined experimentally or calculated using commercially available software.

Compound	logP	logP (octanol/water) at 25° C.
CNC(=O)C(C)(C(C)C)C(C)C [N,2,3-trimethyl-2-propan-2-ylbutanamide]	2.48	–
CCNC(=O)C(CC)(C(C)C)C(C)C [N-ethyl-2,2-diisopropylbutanamide]	3.6	–
CCNC(=O)C1CC(C)CCC1C(C)C (stereo not shown) [N-ethyl-p-menthane-3-carboxamide (WS-3), N-ethyl-p-menthane-3-carboxamide]	3.81	–

Further lines, results first:

logP	logP (octanol/water) at 25° C.	Compound
3.38	–	CCOC(=O)CNC(=O)C1CC(C)CCC1C(C)C (stereo not shown) [ethyl 2-[(5-methyl-2-propan-2-ylcyclohexanecarbonyl)amino]acetate]
3.4	–	CC1CCC(C(C)C)C(O)C1 (stereo not shown) [menthol, reference compound]
–	4.12	CC(C)[C@@H]1CC[C@@H](C)C[C@H]1OC(=O)CCCC(=O)O [monomenthyl glutarate]
3.4	–	C/C=C/C=C\CC/C=C/C(=O)NCC(C)C [spilanthol, N-isobutyl-2E,6Z,8E-decatrienamide]
